Measured values from patent publication US20100173332A1, “Method for the Fluorescent Detection of Nitroreductase Activity Using Nitro-Substituted Aromatic Compounds” (Auckland Uniservices Limited, priority 2006, published 2010).
“Also recorded” adds a separate entry of the source. Where a name gives a salt, the structure may show the parent alone. Values belong to the compound of their own block, whether it stands above or below them.

Experiments:
[1] = target: T1, NAD(P)H dehydrogenase quinone 1 (DT-diaphorase; NQO1) (Homo sapiens, UniProt P15559); test: Detecting human aerobic nitroreductase activity in MDA231 DTD cells; type: cell-based; conditions: for fluorescent signal in the presence of human NQO1 expression: MDA231 DTD cells, 100 μM, 4 hr (FIG. 5)
T1 construct: expressed in transfected cells; host or cells: MDA231 human breast cancer cell line, clonal derivative MDA231 DTD
Experimental: The human breast cancer cell line (MDA231^WT) and a clonal derivative (MDA231^DTD) engineered to express the human aerobic reductase, NAD(P)H dehydrogenase quinone 1 (DT-diaphorase; NQO1) under the control of a constitutive promoter were seeded into 96-well plates at a density of 1×10^5 cells/well. When samples were equilibrated to 37° C., 5% CO2 for 2 hr and compounds 1 to 15 were added to a final concentration of 100 μM for 4 hr. Test groups were cell-free culture media alone (control), MDA231^WT and MDA231^DTD. The fluorescence signal was monitored at 355/460 except for compounds 4 and 11 that were monitored at 405/585 and compounds 8 and 10 that were monitored at 355/585 and 355/535 respectively (FIG. 5).
In a further exemplification, the human breast cancer cell line (MDA231^WT) and a clonal derivative (MDA231^DTD) engineered to express the human NQO1 gene (DT-diaphorase) under the control of a constitutive promoter were seeded into 96-well tissue culture plates at 1×10^5 cells/well. Samples were equilibrated to 37° C., 5% CO2, compound (1) (6-nitro-4(1H)-quinolinone) was added to a final concentration of 300 μM. Test groups were culture media alone (control), MDA231^WT cells and MDA231^DTD cells. The rate of fluorescence signal generation at 355/460 was monitored as a function of time (FIG. 6).

[2] = Aqueous stability in minimal essential media in the absence of cells (background fluorescence); type: physicochemical; conditions: for increase in background florescence in culture media: 300 μM, minimal essential media, 37° C., 5% CO2, 355/460, over 7.8 hours; for aqueous stability compared with methyl-7-nitrocoumarin carboxylate and 7-nitrocoumarin-3-carboxylic acid: FIG. 11
Experimental: In a further experiment, the aqueous stability of compounds 1 and 2 were compared with the compounds methyl-7-nitrocoumarin carboxylate and 7-nitrocoumarin-3-carboxylic acid in the absence of cell culture. Minimal essential media was equilibrated to 37° C., 5% CO2 for 2 hr and compounds were added to a final concentration of 300 μM. […]

[3] = target: T2, E. coli nitroreductase (nfsB) (Escherichia coli, UniProt P38489); test: Entrapment of fluorescent products within nitroreductase expressing HCT116 cells; type: cell-based; conditions: washed; for cellular retention of fluorescence in nitroreductase expressing but not parental HCT116 cells: 10 μM for 1.5 hr, 6 hours post-exposure
T2 construct: expressed in transfected cells; host or cells: MDA231 (MDA-231) human breast cancer cell line, clonal derivative MDA231 NTR
Experimental: The human colorectal cancer cell line (HCT116^WT) and a clonal derivative (HCT116^NTR) engineered to express the reporter gene E. coli nitroreductase (nfsB) under the control of a constitutive promoter were seeded onto glass coverslips at an equal density (50:50). Cells were equilibrated to 37° C., 5% CO2, and compound 1 and 13 was added to a final concentration of 100 μM for 1 hr. Cells were washed free of compound after 1 hour and fluorescence was monitored as a function of time (FIG. 8).
In further screening (FIG. 9), the human colorectal cancer cell line (HCT116^WT) and a clonal derivative (HCT116^NTR) engineered to express the reporter gene E. coli nitroreductase (nfsB) under the control of a constitutive promoter were seeded separately into a 96-well glass plate. Cells were equilibrated to 37° C., 5% CO2, and compounds were added to a final concentration of 10 μM for 1.5 hr. Cells were washed free of compound and fluorescence was monitored 6 hours post-exposure. […] The image has been rendered monochromatic for the purposes of publication quality.

[4] = target: T3, Escherichia coli nfsB (NfsB) (Escherichia coli, UniProt P38489); test: Multiplexed reporter detection with compounds 4 and 16 in MDA-231 cells expressing nfsB; type: cell-based; conditions: nfsB and CYPOR cells mixed 1:1, 10 μM, 45 minutes, microscopy
T3 construct: expressed in transfected cells; host or cells: MDA231 (MDA-231) human breast cancer cell line, clonal derivative MDA231 NTR
Experimental: Compounds 4 and 16 (as representative nitro-substituted aromatic compounds of the present invention) were utilized to exemplify the ability to detect individual cell populations. […] 30,000 cells were seeded into a plastic 96-well plate in a volume of 0.1 mL. After 2 h attachment samples were incubated with either 200 μM 16 or 100 μM 4 by dilution of DMSO stock solutions into culture medium and addition of 0.1 mL directly into wells. Plates were incubated for 4 h before being read on a fluorescent platereader at Ex/Em 355/460 and 485/535. Values represent the fluorescence in the presence of cells—blank (fluorescence in the absence of cells). When the data were collated it was evident that the fluorescent output of each cell population could be identified with minimal interference from the other reductases-generated fluorescent molecules. […] To establish the single cell specificity of compounds 4 and 16 for detection of activities in a mixed (co-cultured) cell population, cells were examined by fluorescent microscopy following concurrent exposure to compounds 4 and 16. […] Samples were incubated at 37° C. for 45 minutes, washed three times in PBS and images were acquired on a Nikon TE-2000 inverted fluorescence microscope. […]

[5] = Aerobic/anaerobic stability in cell-free culture media (fluorescence); type: physicochemical; conditions: 100 μM, 37° C., 4 hr, air or 95% N2
Experimental: Compounds 1-15 or methyl 7-nitrocoumarin carboxylate (methyl 7-nitro-2-oxo-2H-chromene-3-carboxylate) or 7-nitrocoumarin-3-carboylic acid or 6-chloro-9-nitro-5H-benzo[a]phenoxazin-5-one were added to a final concentration of 100 μM in cell-free culture media and were held at 37° C., 5% CO2 for 4 hr under either air or 95% N2. The fluorescence signal was monitored at 355/460 except for compounds 4 and 11 that were monitored at 405/585 and compounds 8, 10 and 6-Cl-9-nitro-5-oxo-5H-benzo[a]phenoxazine that were monitored at 355/585, 355/535 and 530/585 respectively (FIG. 12).

[6] = target: T2, E. coli nitroreductase (nfsB); test: Nitroreductase specificity: fluorescence in MDA231 NTR versus MDA231 WT cells; type: cell-based; conditions: for differential fluorescent signal MDA231 NTR versus MDA231 WT: 95% N2, 355/460, at 7.5 hours
Experimental: The human breast cancer cell line (MDA231^WT) and a clonal derivative (MDA231^NTR) engineered to overexpress the E. coli nitroreductase (nfsB) under the control of a constitutive promoter were seeded into 96-well plates at a density of 2×10^4 cells/well. When samples were equilibrated to 37° C., 95% N2, 5% CO2 for 2 hr and compound 2 or methyl 7-nitrocoumarin carboxylate (methyl 7-nitro-2-oxo-2H-chromene-3-carboxylate) were added to a final concentration of 300 μM. The fluorescence signal was monitored at 355/460 over a 7.5 hour time frame (FIG. 10).

[7] = target: T2, E. coli nitroreductase (nfsB); test: Rate of fluorescence signal generation in stirred HCT116 NTR cell suspension; type: cell-based; conditions: 300 μM, 355/460
Experimental: In a further exemplification, the human colorectal cancer cell line (HCT116^WT) and a clonal derivative (HCT116^NTR) engineered to express the reporter gene E. coli nitroreductase (nfsB) under the control of a constitutive promoter were suspended in stirred culture media at a density of 5×10^6 cells/ml. When samples were equilibrated to 37° C., 5% CO2, compound (2) (1-methyl-6-nitro-4(1H)-quinolinone) was added to a final concentration of 300 μM. Test groups were culture media alone (control), HCT116^WT and HCT116^NTR. The rate of fluorescence signal generation at 355/460 was monitored as a function of time (FIG. 4).

[8] = 300 μM, 95% N2, 355/460, 7.5 hour time frame

T1 sequence (P15559 whole entry): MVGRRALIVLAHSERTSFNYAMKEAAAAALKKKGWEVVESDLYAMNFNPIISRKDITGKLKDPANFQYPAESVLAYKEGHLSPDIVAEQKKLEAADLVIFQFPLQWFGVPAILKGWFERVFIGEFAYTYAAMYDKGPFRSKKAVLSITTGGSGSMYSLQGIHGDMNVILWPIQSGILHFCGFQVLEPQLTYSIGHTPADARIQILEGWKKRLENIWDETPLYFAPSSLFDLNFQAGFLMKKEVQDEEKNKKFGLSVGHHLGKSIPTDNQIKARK
T2 sequence (P38489 whole entry): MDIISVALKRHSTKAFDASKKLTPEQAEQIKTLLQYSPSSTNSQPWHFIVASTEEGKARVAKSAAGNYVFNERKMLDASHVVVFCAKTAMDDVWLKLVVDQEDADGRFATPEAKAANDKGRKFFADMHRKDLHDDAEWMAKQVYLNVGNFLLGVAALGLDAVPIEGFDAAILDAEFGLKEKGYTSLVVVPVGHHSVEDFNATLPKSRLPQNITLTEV
T3 sequence (P38489 whole entry): as above

Compound: Cc1cc(=O)c2cc([N+](=O)[O-])ccc2[nH]1 [Compound 3, 2-Methyl-6-nitro-4(1H)-quinolinone]
- fluorescent signal in the presence of human NQO1 expression [1]: gave rise to a fluorescent signal; also recorded: generate a fluorescent signal

- melting point: 94 to 96 °C
Compound: COC(=O)CCCNS(=O)(=O)c1cccc2c([N+](=O)[O-])cccc12 [Compound 8, methyl 4-{[(5-nitro-1-naphthyl)sulfonyl]amino}butanoate]

Compound: O=c1cc[nH]c2ccc([N+](=O)[O-])cc12 [Compound 1, 6-Nitro-4(1H)-quinolinone]
- increase in background florescence in culture media [2]: 1.4 fold
- aqueous stability compared with methyl-7-nitrocoumarin carboxylate and 7-nitrocoumarin-3-carboxylic acid [2]: superior aqueous stability
- fluorescence in wells with compound alone (control) or parental MDA231 WT ([1]; 300 μM, 355/460): No detectable fluorescence
- fluorescent signal generation by MDA231 DTD cells as a function of time ([1]; 300 μM, 355/460 (FIG. 6)): generate a fluorescent signal
- fluorescent signal in the presence of human NQO1 expression [1]: gave rise to a fluorescent signal
- retention of fluorescence in cells after wash ([3]; HCT116 WT:HCT116 NTR 50:50 co-culture, 100 μM for 1 hr, by 4 hours): no longer fluorescent

Compound: CN(C)CCCOc1ccnc2cc([N+](=O)[O-])ccc12 [Compound 14, N,N-dimethyl-3-[(7-nitro-4-quinolinyl)oxy]-1-propanamine]
- cellular retention of fluorescence in nitroreductase expressing but not parental HCT116 cells [3]: possessing cellular retention properties
- fluorescent emission colour on co-registration image (FITC filter set) [4]: green

- melting point: 198 to 202 °C
Compound: CN(C)CCNC(=O)c1cc(N)cc2c(=O)c3ccccc3[nH]c12 [Compound 18, 2-Amino-N-[2-(dimethylamino)ethyl]-9-oxo-9,10-dihydro-4-acridinecarboxamide]

Compound: O=c1c(Cl)c2oc3cc([N+](=O)[O-])ccc3nc-2c2ccccc12 [6-chloro-9-nitro-5H-benzo[a]phenoxazin-5-one]
- fluorescence in cell-free culture media (instability) [5]: measurable fluorescence; also recorded: lacks stability in culture medium under conditions of low oxygen

Compound: COC(=O)c1cc2ccc([N+](=O)[O-])cc2oc1=O [methyl 7-nitrocoumarin carboxylate, methyl 7-nitro-2-oxo-2H-chromene-3-carboxylate, reference compound]
- increase in background florescence in culture media [2]: 4.2 fold
- fluorescence in control cell line MDA231 WT [6, 8]: measurable fluorescence
- differential fluorescent signal MDA231 NTR versus MDA231 WT ([6]; 300 μM): 1.6 fold
- fluorescence in cell-free culture media (instability) [5]: measurable fluorescence

Compound: CN(C)CCCOc1ccnc2cc([N+](=O)[O-])ccc12 (as salt: trifluoroacetate) [Compound 14, N,N-dimethyl-3-[(7-nitro-4-quinolinyl)oxy]-1-propanamine]
- melting point: 146 to 149 °C

- melting point: 162 to 167 °C
Compound: COC(=O)CCCNS(=O)(=O)c1ccc2cccc(N)c2c1 [Compound 22, Methyl 4-{[(8-amino-2-naphthyl)sulfonyl]amino}butanoate]

Compound: CN(C)CCCNc1ccnc2cc([N+](=O)[O-])ccc12 [Compound 15, N^1,N^1-Dimethyl-N^3-(7-nitro-4-quinolinyl)-1,3-propanediamine]
- cellular retention of fluorescence in nitroreductase expressing but not parental HCT116 cells [3]: possessing cellular retention properties

- melting point: 212 to 214 °C
Compound: Cn1ccc(=O)c2cc(N)ccc21 [Compound 17, 6-Amino-1-methyl-4(1H)-quinolinone]

- melting point: 99 to 101 °C
Compound: CN(C)CCCCN1C(=O)c2cccc3cc(N)cc(c23)C1=O [Compound 19, 5-Amino-2-[4-(dimethylamino)butyl]-1H-benzo[de]isoquinoline-1,3(2H)-dione]

Compound: Cn1ccc(=O)c2cc([N+](=O)[O-])ccc21 [Compound 2, 1-Methyl-6-nitro-4(1H)-quinolinone]
- time by which reduction by HCT116 NTR cells approached completion ([7]; 5×10^6 cells/ml): ≤ 9 h
- fluorescence in control or parental HCT116 WT cultures [7]: No detectable fluorescence
- increase in background florescence in culture media [2]: 1.4 fold
- aqueous stability compared with methyl-7-nitrocoumarin carboxylate and 7-nitrocoumarin-3-carboxylic acid [2]: superior aqueous stability
- fluorescence in control cell line MDA231 WT [6, 8]: no detectable fluorescence
- fluorescence in nitroreductase-expressing cell line MDA231 NTR [6, 8]: robust fluorescent signal
- differential fluorescent signal MDA231 NTR versus MDA231 WT ([6]; 300 μM): 480 fold
- performance as nitroreductase fluorescent reporter relative to methyl 7-nitrocoumarin carboxylate ([6]; FIG. 10): superiority

- increase in background florescence in culture media [2]: 5.3 fold
- fluorescence in cell-free culture media (instability) [5]: measurable fluorescence
Compound: O=C(O)c1cc2ccc([N+](=O)[O-])cc2oc1=O [7-nitrocoumarin-3-carboxylic acid, reference compound]
